The results in this text go back to US20240336611A1 (Insilico Medicine IP Limited, priority 2021, published 2024).

The target of data set [1] is T1, TNIK kinase [amino acid sequence (1-367), Invitrogen] (Homo sapiens, UniProt Q9UKE5).
T1 construct: purchased Invitrogen
Description: TNIK kinase inhibition assay (Z-lyte FRET-peptide). Format: biochemical. The following applies: 0.625 nM TNIK kinase, 2 μM Ser/Thr 7 peptide, 64 μM ATP, one hour at room temperature.

Data set [2] in a line: Metabolic stability in human liver microsomes. Format: in vitro ADME. Particulars: LM Clint (intrinsic clearance); 1 μM test compound, 0.5 mg protein/mL microsome, 37° C., up to 60 min. As for the experimental part: 2.1. Test Compound and Control Working Solution Preparation: Working solution: 5 µL of compound and control stock solution (10 mM in dimethyl sulfoxide (DMSO)) were diluted with 495 μL of acetonitrile (ACN) (intermediate solution concentration: 100 μM, 99% ACN).
2.2.1. […] 2.2.2. Preparation Procedure: The appropriate amount of NADPH powder were weighed and diluted into a 10 mM MgCl2 solution (working solution concentration: 10 unit/mL; final concentration in reaction system: 1 unit/mL).
2.3.2. Preparation Procedure: The appropriate concentrations of microsome working solutions were prepared in 100 mM potassium phosphate buffer. 2.4. Stop Solution Preparation: Cold (4° C.) acetonitrile (ACN) containing 200 ng/mL tolbutamide and 200 ng/mL labetalol as internal standards (IS) were used as the stop solution.
2.5.1. Pre-warm empty ‘Incubation’ plates T60 and NCF60 for 10 min minutes. 2.5.2. Liver microsomes were diluted to 0.56 mg/mL in 100 mM phosphate buffer. 2.5.3. 445 uL microsome working solutions (0.56 mg/mL) were transferred into pre-warmed ‘Incubation’ plates T60 and NCF60. Then ‘Incubation’ plates T60 and NCF60 were pre-incubated for 10 min at 37° C. with constant shaking. 54 μL liver microsomes were transferred to blank plate, then 6 μL NAPDH cofactor were added to the blank plate, and then 180 μL quenching solution can be added to blank plate. 2.5.4 5 μL compound working solution (100 μM) were added into ‘incubation’ plates (T60 and NCF60) containing microsomes and mix 3 times thoroughly. 2.5.5. For the NCF60 plate, 50 uL of buffer were added and were mixed 3 times thoroughly. Start timing; plate was incubated at 37° C. for 60 min while shaking. 2.5.6. In ‘Quenching’ plate TO, 180 μL quenching solution were added and 6 μL NAPDH cofactor were added. Ensured the plate was chilled to prevent evaporation. 2.5.7. For the T60 plate, were mixed 3 times thoroughly, and immediately removed 54 μL mixture for the 0-min time point to ‘Quenching’ plate. Then 44 μL NAPDH cofactor were added to incubation plate (T60). Start timing; plate were incubated at 37° C. for 60 min while shaking.
2.5.8. At 5, 10, 20, 30, and 60 min, 180 μL quenching solution were added to ‘Quenching’ plates, mix once, and were serially transferred 60 μL sample from T60 plate per time point to ‘Quenching’ plates.
2.5.9. For NCF60: were mixed once, and 60 μL sample were transferred from the NCF60 incubation to ‘Quenching’ plate containing quenching solution at the 60-min time point.
2.5.10. All sampling plates were shaken for 10 min, then centrifuged at 4000 rpm for 20 minutes at 4° C. 2.5.11. 80 μL supernatant were transferred into 240 μL HPLC water, and were mixed by plate shaker for 10 min. 2.5.12. Each bioanalysis plate were sealed and shaken for 10 minutes prior to LC-MS/MS analysis.
3.1. The equation of first order kinetics were used to calculate T1/2 and Intrinsic clearance (CLint mic) in (μL/min/mg).
Equation of first order kinetic.

T1 sequence (Q9UKE5 1-367): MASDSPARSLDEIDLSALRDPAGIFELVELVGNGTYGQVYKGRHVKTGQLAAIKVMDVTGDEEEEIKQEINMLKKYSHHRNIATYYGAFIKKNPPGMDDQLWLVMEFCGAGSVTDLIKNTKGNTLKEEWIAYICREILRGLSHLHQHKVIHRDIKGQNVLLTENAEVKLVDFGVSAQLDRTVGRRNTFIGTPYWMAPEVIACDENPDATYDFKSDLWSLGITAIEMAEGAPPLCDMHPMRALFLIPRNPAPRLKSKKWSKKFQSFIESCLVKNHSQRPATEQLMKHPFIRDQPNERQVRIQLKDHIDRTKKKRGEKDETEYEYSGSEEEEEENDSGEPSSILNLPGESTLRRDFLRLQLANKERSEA

As for `CC(C)n1cnc(-c2ccc(F)cc2)c1-c1nc(C(=O)Nc2ccc3c(c2)CN(C)CC3)cs1` [Compound 56, 2-(4-(4-fluorophenyl)-1-isopropyl-1H-imidazol-5-yl)-N-(2-methyl-1,2,3,4-tetrahydroisoquinolin-7-yl)thiazole-4-carboxamide], in data set [1], the IC50 (as a rule, the point on the concentration scale where inhibition reaches its midpoint) was in the range of 1 to 12 nM. Besides, the “Human Liver Microsome (μM/min/mg)” value in data set [2] is reported as “+ (>100 μM/min/mg as +)”.

As for `[2H]C([2H])([2H])N1CC(c2ccc(NC(=O)c3c[nH]c(-c4c(-c5ccc(F)cc5)ncn4C(C)C)n3)c(F)c2)C1` [Compound 114, 2-[5-(4-fluorophenyl)-3-isopropyl-imidazol-4-yl]-N-[2-fluoro-4-[1-(trideuteriomethyl)azetidin-3-yl]phenyl]-1H-imidazole-4-carboxamide], in data set [1], the half-inhibitory concentration (IC50) lay in the range of 1 to 12 nM. Moreover, the “Human Liver Microsome (μM/min/mg)” value in data set [2] is listed as “+++ (1-10 μM/min/mg as +++)”.

Regarding `CC(C)n1cnc(-c2ccc(F)cc2)c1-c1nc(C(=O)Nc2ccc(C3COC3)cc2F)c[nH]1` [Compound 55, N-(2-fluoro-4-(oxetan-3-yl)phenyl)-5′-(4-fluorophenyl)-3′-isopropyl-1H,3′H-[2,4′-biimidazole]-4-carboxamide], the IC50 in data set [1] was in the range of 1 to 12 nM. For the same compound, the “Human Liver Microsome (μM/min/mg)” value in data set [2] is “++ (10-100 μM/min/mg as ++)”.

On to `O=C(Nc1ccc(N2CCOCC2)cn1)c1csc(-c2c(-c3ccc(F)cc3)ncn2C2CC(F)(F)C2)n1` [Compound 65, 2-(1-(3,3-difluorocyclobutyl)-4-(4-fluorophenyl)-1H-imidazol-5-yl)-N-(5-morpholinopyridin-2-yl)thiazole-4-carboxamide], for which the IC50 in data set [1] lay in the range of 1 to 12 nM. Moreover, in data set [2], the “Human Liver Microsome (μM/min/mg)” value is “++ (10-100 μM/min/mg as ++)”.

`CC(C)n1cnc(-c2ccc(F)cc2)c1-c1nc(C(=O)Nc2ccc(N3CC(N(C)C)C3)cn2)cs1` [Compound 64, N-(5-(3-(dimethylamino)azetidin-1-yl)pyridin-2-yl)-2-(4-(4-fluorophenyl)-1-isopropyl-1H-imidazol-5-yl)thiazole-4-carboxamide]: the IC50 in data set [1] lay within 1 to 12 nM. The “Human Liver Microsome (μM/min/mg)” value in data set [2] is listed as “+ (>100 μM/min/mg as +)”.

On to `CC(C)c1onc(-c2ccc(F)cc2)c1-c1nc(C(=O)Nc2ccc(C3CN(C)C3)cc2F)cs1` [Compound 88, N-(2-fluoro-4-(1-methylazetidin-3-yl)phenyl)-2-(3-(4-fluorophenyl)-5-isopropylisoxazol-4-yl)thiazole-4-carboxamide], for which, in data set [1], the IC50 was in the range of 1 to 12 nM. Besides, in data set [2], the “Human Liver Microsome (μM/min/mg)” value is on record as “++ (10-100 μM/min/mg as ++)”.

`O=C(Nc1ccc(N2CCOCC2)cn1)c1csc(-c2c(-c3ccc(F)cc3)ncn2C2COC2)n1` [Compound 70, 2-(4-(4-fluorophenyl)-1-(oxetan-3-yl)-1H-imidazol-5-yl)-N-(5-morpholinopyridin-2-yl)thiazole-4-carboxamide]: the IC50 in data set [1] lay within 1 to 12 nM. In data set [2], the “Human Liver Microsome (μM/min/mg)” value is recorded as “++ (10-100 μM/min/mg as ++)”.

Regarding `CC(C)n1cnc(-c2ccc(F)cc2)c1-c1nc(C(=O)Nc2ccc(C3CN(C)C3)cn2)cs1` [Compound 30, 2-(4-(4-fluorophenyl)-1-isopropyl-1H-imidazol-5-yl)-N-(5-(1-methylazetidin-3-yl)pyridin-2-yl)thiazole-4-carboxamide], the IC50 in data set [1] lay within 1 to 12 nM. Moreover, the “Human Liver Microsome (μM/min/mg)” value in data set [2] is “++ (10-100 μM/min/mg as ++)”.

The compound `CC(C)n1cnc(-c2ccc(F)cc2)c1-c1nc(C(=O)Nc2ccc(N3CC4CC(C3)N4C)cc2)c[nH]1` [Compound 23, 5′-(4-fluorophenyl)-3′-isopropyl-N-(4-(6-methyl-3,6-diazabicyclo[3.1.1]heptan-3-yl)phenyl)-1H,3′H-[2,4′-biimidazole]-4-carboxamide] gave an IC50 in data set [1] of 1 to 12 nM. Besides, in data set [2], the “Human Liver Microsome (μM/min/mg)” value is “++ (10-100 μM/min/mg as ++)”.

Take `O=C(Nc1ccc(N2CCOCC2)cn1)c1coc(-c2c(-c3ccc(F)cc3)ncn2C2CC(F)(F)C2)n1` [Compound 66, 2-(1-(3,3-difluorocyclobutyl)-4-(4-fluorophenyl)-1H-imidazol-5-yl)-N-(5-morpholinopyridin-2-yl)oxazole-4-carboxamide]: the IC50 in data set [1] lay within 12 to 150 nM. The “Human Liver Microsome (μM/min/mg)” value in data set [2] is “++ (10-100 μM/min/mg as ++)”.

With `CC(C)c1onc(-c2ccc(F)cc2)c1-c1nc(C(=O)Nc2ccc(N3CC4CC(C3)N4C)cn2)cs1` [Compound 96, 2-(3-(4-fluorophenyl)-5-isopropylisoxazol-4-yl)-N-(5-(6-methyl-3,6 diazabicyclo[3.1.1]heptan-3-yl)pyridin-2-yl)thiazole-4-carboxamide], the IC50 in data set [1] lay within 1 to 12 nM. In addition, the “Human Liver Microsome (μM/min/mg)” value in data set [2] is “++ (10-100 μM/min/mg as ++)”.

Consider `CN1[C@@H]2CC[C@H]1CN(c1ccc(NC(=O)c3csc(-c4c(-c5ccc(F)cc5)ncn4C4COC4)n3)nc1)C2` [Compound 51, 2-(4-(4-fluorophenyl)-1-(oxetan-3-yl)-1H-imidazol-5-yl)-N-(5-((1R,5S)-8-methyl-3,8-diazabicyclo[3.2.1]octan-3-yl)pyridin-2-yl)thiazole-4-carboxamide], for which the IC50 in data set [1] fell in the range of 1 to 12 nM. Also, the “Human Liver Microsome (μM/min/mg)” value in data set [2] was “++ (10-100 μM/min/mg as ++)”.

The compound `CC(C)n1cnc(-c2ccc(F)cc2)c1-c1nc(C(=O)Nc2ccc(N3CCN(C)CC3)cc2F)c[nH]1` [Compound 14, N-(2-fluoro-4-(4-methylpiperazin-1-yl)phenyl)-5′-(4-fluorophenyl)-3′-isopropyl-1H,3′H-[2,4′-biimidazole]-4-carboxamide] returned an IC50 in data set [1] of 1 to 12 nM. In addition, in data set [2], the “Human Liver Microsome (μM/min/mg)” value is “++ (10-100 μM/min/mg as ++)”.

On to `COCCN1CC(c2ccc(NC(=O)c3csc(-c4c(-c5ccc(F)cc5)ncn4C(C)C)n3)nc2)C1` [Compound 109, 2-(4-(4-fluorophenyl)-1-isopropyl-1H-imidazol-5-yl)-N-(5-(1-(2-methoxyethyl)azetidin-3-yl)pyridin-2-yl)thiazole-4-carboxamide], for which the half-maximal inhibitory concentration (IC50) in data set [1] was in the range of 1 to 12 nM. The “Human Liver Microsome (μM/min/mg)” value in data set [2] is recorded as “++ (10-100 μM/min/mg as ++)”.

For `[2H]C([2H])([2H])N1CC(c2ccc(NC(=O)c3nc(-c4c(-c5ccc(F)cc5)ncn4C(C)C)cs3)nc2)C1` [Compound 130, 4-[5-(4-fluorophenyl)-3-isopropyl-imidazol-4-yl]-N-[5-[1-(trideuteriomethyl)azetidin-3-yl]-2-pyridyl]thiazole-2-carboxamide], the “Human Liver Microsome (μM/min/mg)” value in data set [2] is “++ (10-100 μM/min/mg as ++)”.

Turning to `O=C(Nc1ccc(N2CCOCC2)cn1)c1c[nH]c(-c2c(-c3ccc(F)cc3)ncn2C2COC2)n1` [Compound 72, 5′-(4-fluorophenyl)-N-(5-morpholinopyridin-2-yl)-3′-(oxetan-3-yl)-1H,3′H-[2,4′-biimidazole]-4-carboxamide], in data set [2], the “Human Liver Microsome (μM/min/mg)” value is given as “++ (10-100 μM/min/mg as ++)”.

As to `[2H]C([2H])([2H])N1CC(c2ccc(NC(=O)c3nc(-c4c(-c5ccc(F)cc5)ncn4C(C)C)cs3)c(F)c2)C1` [Compound 131, 4-[5-(4-fluorophenyl)-3-isopropyl-imidazol-4-yl]-N-[2-fluoro-4-[1-(trideuteriomethyl)azetidin-3-yl]phenyl]thiazole-2-carboxamide], the “Human Liver Microsome (μM/min/mg)” value in data set [2] is on record as “++ (10-100 μM/min/mg as ++)”.
